Columns and labels:
Format in all cases: binding
CCR7 = biological target: T1, CCR7 (Homo sapiens, UniProt P32248); test: NanoBRET screen HiBiT-CCR7 in HEK293
T1 construct: purchased Promega (in-house HiBiT-GPCR construct library, NanoBRET)
T1 sequence (P32248 25-378): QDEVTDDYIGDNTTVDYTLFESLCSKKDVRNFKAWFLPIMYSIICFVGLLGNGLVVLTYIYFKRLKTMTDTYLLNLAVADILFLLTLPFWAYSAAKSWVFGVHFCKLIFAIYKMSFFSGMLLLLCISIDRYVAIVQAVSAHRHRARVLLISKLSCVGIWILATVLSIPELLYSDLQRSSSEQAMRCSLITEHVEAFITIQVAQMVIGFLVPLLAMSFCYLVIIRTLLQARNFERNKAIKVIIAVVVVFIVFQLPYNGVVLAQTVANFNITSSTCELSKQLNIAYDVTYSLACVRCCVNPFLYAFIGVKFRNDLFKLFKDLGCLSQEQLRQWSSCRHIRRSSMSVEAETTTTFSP
Procedure: (§1) Each tracer candidate was screened across the entire library of HiBiT-GPCR constructs using NanoBRET as the detection modality. As depicted in Figure 4A, the specificity of interactions was evaluated through decrease in BRET due to competitive displacement of a bound tracer by excess parental compound. Each tracer was analyzed for binding to each HiBiT-GPCR fusion in the absence and in the presence of competing parental compound. Briefly, HEK293 cells were transfected with HiBiT-GPCR constructs diluted into promoterless DNA to reduce expression and maximize translocation to the cell surface. Each tracer candidate was then screened at concentrations of 1 μM and 0.1 μM across cells expressing these fusions. Cells were treated for 1.5 h with tracer either alone or in the presence of 20 μM competing parental compound (i.e., control). BRET was measured upon addition of purified LgBiT and subsequent complementation with HiBiT genetically fused to a GPCR. The specificity of interactions was assessed through a decrease in BRET signal due to competitive displacement of the bound tracer. To further gauge the robustness of these interactions, the fold response over the control (i.e., BRETtracer/BRETcontrol) was calculated. We chose a 1.5-fold response, which translates to ≥7-fold signal over noise as the minimal threshold required to score an interaction as positive. […]. Below we highlight the screening results obtained for our exemplary fluorescent tracers based on Clozapine, Amitriptyline and AZD1283.
(§2) HiBiT-GPCR DNA constructs were diluted in 10 mM Tris pH 8 to a final concentration of 0.01 μg/μL, arrayed in 96-well plates and stored at −20 °C. For transfection, HEK293 cells were suspended in Opti-MEM (without phenol red) supplemented with 2% fetal bovine serum (Seradigm) and 100 units/mL penicillin–streptomycin (Gibco) at a final concentration of 220,000 cells/mL and dispensed into white 96-well plates at 90 μL/well. Subsequent transfections and screens were carried using an Agilent Bravo Automated Liquid Handling Platform. First, the 96-well HiBiT DNA arrays were diluted 25-fold in Opti-MEM (without serum or phenol red) to a final concentration of 0.0004 μg/μL and 20 μL of the diluted DNAs were transferred into new 96-well plates. Next, promoterless carrier DNA (1 μg/μL) was diluted 25-fold (0.04 μg/μL) and then dispensed into the diluted arrays at 20 μL/well. Following brief mixing, Viafect transfection reagent (Promega) diluted 16-fold into Opti-MEM was dispensed into the plates at 40 μL/well. After mixing by pipetting, plates were incubated for 10 min on the pipetting station deck. The DNA-transfection reagent complexes were then added to plates containing cells. To facilitate the screen, 10 μL of DNA-transfection reagent complexes were added in duplicates to the top 4 and bottom 4 rows, resulting in two identical 48-well arrays per plate. Plates with transfected cells were incubated for 18–20 h at 37 °C/5% CO2. A screen of each tracer across the entire library using two different concentrations requires duplicate plates of transfected cells. Depending on the number of tracers being screened, transfections can be scaled up using the same ratios. The next day, for each tracer, four 20× screening solutions in tracer dilution buffer (Promega) were prepared: two duplicates at final concentration of 20 μM and two duplicates at a final concentration of 2 μM. A competing unmodified compound was added to one of each duplicate at a final concentration of 400 μM. The four resulting solutions were diluted 4-fold in Opti-MEM without serum or phenol red to generate 5× solutions (5 µM and 0.5 µM tracer +/− 100 μM competing compound). To screen the library, a BioTek MultiFlo FX liquid dispenser was used to dispense 22.5 µL of tracer solution to the top 4 rows and 22.5 µL tracer + competing compound solution to the 4 bottom rows. Plates were briefly mixed on an orbital shaker and incubated for 1.5 h at room temperature. […]

BDKRB2 = biological target: T2, BDKRB2 (Homo sapiens, UniProt P30411); test: NanoBRET screen HiBiT-BDKRB2 in HEK293
T2 construct: purchased Promega (in-house HiBiT-GPCR construct library, NanoBRET)
T2 sequence (P30411 1-391): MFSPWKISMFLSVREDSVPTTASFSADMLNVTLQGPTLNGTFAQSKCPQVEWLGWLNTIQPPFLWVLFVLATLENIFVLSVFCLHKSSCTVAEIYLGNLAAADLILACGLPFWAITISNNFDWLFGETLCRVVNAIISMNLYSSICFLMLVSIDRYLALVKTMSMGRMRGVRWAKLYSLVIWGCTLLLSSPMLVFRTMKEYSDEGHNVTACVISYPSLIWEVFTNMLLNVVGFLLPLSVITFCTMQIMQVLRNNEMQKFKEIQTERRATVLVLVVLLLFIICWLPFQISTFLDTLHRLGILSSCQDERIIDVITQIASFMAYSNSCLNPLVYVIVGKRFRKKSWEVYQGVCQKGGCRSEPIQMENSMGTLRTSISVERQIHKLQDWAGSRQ
Procedure: as §1, §2

CXCR4 = biological target: T3, CXCR4 (Homo sapiens, UniProt P61073); test: NanoBRET screen HiBiT-CXCR4 in HEK293
T3 construct: purchased Promega (in-house HiBiT-GPCR construct library, NanoBRET)
Procedure: as §1, §2

CCR4 = biological target: T4, CCR4 (Homo sapiens, UniProt P51679); test: NanoBRET screen HiBiT-CCR4 in HEK293
T4 construct: purchased Promega (in-house HiBiT-GPCR construct library, NanoBRET)
T4 sequence (P51679 1-360): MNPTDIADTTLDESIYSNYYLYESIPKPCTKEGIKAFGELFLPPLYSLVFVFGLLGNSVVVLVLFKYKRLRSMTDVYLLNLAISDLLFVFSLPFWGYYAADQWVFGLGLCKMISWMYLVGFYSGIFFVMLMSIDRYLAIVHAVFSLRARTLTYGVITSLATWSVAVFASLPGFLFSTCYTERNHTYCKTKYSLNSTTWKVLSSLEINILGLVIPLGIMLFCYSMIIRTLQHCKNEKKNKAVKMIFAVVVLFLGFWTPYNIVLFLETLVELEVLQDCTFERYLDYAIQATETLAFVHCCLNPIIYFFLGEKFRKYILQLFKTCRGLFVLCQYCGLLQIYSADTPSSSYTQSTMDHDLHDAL
Procedure: as §1, §2

P2RY1 = biological target: T5, P2RY1 (Homo sapiens, UniProt P47900); test: NanoBRET screen HiBiT-P2RY1 in HEK293
T5 construct: purchased Promega (in-house HiBiT-GPCR construct library, NanoBRET)
Procedure: as §1, §2

FZD5 = biological target: T6, FZD5 (Homo sapiens, UniProt Q13467); test: NanoBRET screen HiBiT-FZD5 in HEK293
T6 construct: purchased Promega (in-house HiBiT-GPCR construct library, NanoBRET)
Procedure: as §1, §2

T3 sequence (P61073 whole entry): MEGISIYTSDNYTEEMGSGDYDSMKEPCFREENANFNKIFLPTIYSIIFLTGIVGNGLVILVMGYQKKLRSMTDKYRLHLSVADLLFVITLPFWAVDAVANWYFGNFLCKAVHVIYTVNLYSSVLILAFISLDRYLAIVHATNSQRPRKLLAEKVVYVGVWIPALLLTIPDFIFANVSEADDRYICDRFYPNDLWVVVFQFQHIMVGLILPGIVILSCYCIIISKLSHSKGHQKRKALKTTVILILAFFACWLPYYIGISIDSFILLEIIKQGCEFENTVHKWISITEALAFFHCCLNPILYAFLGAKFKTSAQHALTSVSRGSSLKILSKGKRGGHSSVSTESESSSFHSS
T6 sequence (Q13467 27-585): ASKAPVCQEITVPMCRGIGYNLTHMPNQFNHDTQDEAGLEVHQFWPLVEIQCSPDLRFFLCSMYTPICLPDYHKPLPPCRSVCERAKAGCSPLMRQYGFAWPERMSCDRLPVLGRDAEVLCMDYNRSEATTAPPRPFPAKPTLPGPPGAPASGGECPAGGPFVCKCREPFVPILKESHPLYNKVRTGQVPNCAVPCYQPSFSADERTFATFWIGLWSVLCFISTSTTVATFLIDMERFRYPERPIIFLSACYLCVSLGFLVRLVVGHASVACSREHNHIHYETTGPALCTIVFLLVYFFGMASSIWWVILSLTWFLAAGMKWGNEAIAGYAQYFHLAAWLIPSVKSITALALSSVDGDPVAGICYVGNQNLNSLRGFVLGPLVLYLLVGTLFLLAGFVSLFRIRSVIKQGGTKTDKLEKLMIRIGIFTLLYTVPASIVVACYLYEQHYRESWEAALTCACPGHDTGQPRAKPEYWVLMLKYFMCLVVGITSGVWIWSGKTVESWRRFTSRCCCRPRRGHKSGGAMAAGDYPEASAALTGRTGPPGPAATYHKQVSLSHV
T5 sequence (P47900 whole entry): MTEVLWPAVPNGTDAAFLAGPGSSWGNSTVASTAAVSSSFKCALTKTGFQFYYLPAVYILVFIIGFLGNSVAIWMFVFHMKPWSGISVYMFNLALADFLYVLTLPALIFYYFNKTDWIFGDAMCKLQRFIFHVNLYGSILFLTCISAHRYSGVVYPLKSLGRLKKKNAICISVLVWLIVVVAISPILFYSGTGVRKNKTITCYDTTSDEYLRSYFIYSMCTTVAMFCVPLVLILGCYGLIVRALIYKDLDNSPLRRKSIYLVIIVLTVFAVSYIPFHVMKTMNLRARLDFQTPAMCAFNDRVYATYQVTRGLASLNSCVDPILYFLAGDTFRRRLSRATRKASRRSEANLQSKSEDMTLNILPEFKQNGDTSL

Row | Compound | NanoBRET Fold Response (CCR7; CCR7, tracer 0.1μM) | NanoBRET Fold Response (CCR7; CCR7, tracer 1μM) | NanoBRET Fold Response (BDKRB2; BDKRB2, tracer 0.1μM) | NanoBRET Fold Response (BDKRB2; BDKRB2, tracer 1μM) | NanoBRET Fold Response (CXCR4; CXCR4, tracer 0.1μM) | NanoBRET Fold Response (CXCR4; CXCR4, tracer 1μM) | NanoBRET Fold Response (CCR4; CCR4, tracer 0.1μM) | NanoBRET Fold Response (CCR4; CCR4, tracer 1μM) | NanoBRET Fold Response (P2RY1; P2RY1, tracer 0.1μM) | NanoBRET Fold Response (P2RY1; P2RY1, tracer 1μM) | NanoBRET Fold Response (FZD5; FZD5, tracer 0.1μM) | NanoBRET Fold Response (FZD5; FZD5, tracer 1μM) | also measured
1 | CC(C)N(CC[C@H](c1ccccc1)c1cc(CCNC(=O)c2ccc(CNC(=O)CCc3ccc4n3[B-](F)(F)[N+]3=C(c5ccc[nH]5)C=CC3=C4)cc2)ccc1O)C(C)C [Tolterodine-BZ-NB590] | 1.00 | 1.01 | 1.04 | 1.08 | 0.94 | 1.03 | 0.95 | 0.86 | 1.43 | 1.03 | 1.12 | 1.03 | 
2 | O=C(CCc1ccc2n1[B-](F)(F)[N+]1=C(c3ccc[nH]3)C=CC1=C2)NCCOCCOCCNC(=O)OCCOCCN1CCN(C2=Nc3ccccc3Sc3ccccc32)CC1 [Quetiapine-a-2-NB590] | 1.03 | 1.01 | 1.11 | 0.81 | 0.98 | 0.97 | 1.02 | 0.94 | 1.00 | 1.01 | 1.03 | 0.91 | 
3 | CN1CCN(C2=Nc3cc(Cl)ccc3Nc3ccc(CNC(=O)CCOCCOCCOCCOCCNC(=O)CCc4ccc5n4[B-](F)(F)[N+]4=C(c6ccc[nH]6)C=CC4=C5)cc32)CC1 [Clozapine-b-2-NB590] |  |  |  |  |  |  |  |  |  |  |  |  | NanoBRET Fold Response (CCR7; CCR7, 0.1μM tracer): 1.00; NanoBRET Fold Response (BDKRB2; BDKRB2, 0.1μM tracer): 1.00; NanoBRET Fold Response (BDKRB2; BDKRB2, 1μM tracer): 1.00; NanoBRET Fold Response (CXCR4; CXCR4, 0.1μM tracer): 1.03; NanoBRET Fold Response (CXCR4; CXCR4, 1μM tracer): 1.07; NanoBRET Fold Response (CCR4; CCR4, 0.1μM tracer): 1.04; NanoBRET Fold Response (CCR4; CCR4, 1μM tracer): 0.96; NanoBRET Fold Response (P2RY1; P2RY1, 0.1μM tracer): 1.03; NanoBRET Fold Response (P2RY1; P2RY1, 1μM tracer): 1.01; NanoBRET Fold Response (FZD5; FZD5, 0.1μM tracer): 1.00; NanoBRET Fold Response (FZD5; FZD5, 1μM tracer): 1.04
4 | CC(C)N(CC[C@H](c1ccccc1)c1cc(CCNC(=O)CCOCCOCCOCCOCCNC(=O)CCc2ccc3n2[B-](F)(F)[N+]2=C(c4ccc[nH]4)C=CC2=C3)ccc1O)C(C)C [Tolterodine-2-NB590] | 1.26 | 0.88 | 0.96 | 0.95 | 0.88 | 1.02 | 1.29 | 1.16 | 0.97 | 1.00 | 0.87 | 1.07 | 
5 | CN(C)CCC=C1c2ccccc2CCc2ccc(C(=O)NCCNC(=O)CCOCCOCCOCCOCCNC(=O)CCc3ccc4n3[B-](F)(F)[N+]3=C(c5ccc[nH]5)C=CC3=C4)cc21 [Amitriptyline-a-2-NB590] |  |  |  |  |  |  |  |  |  |  |  |  | NanoBRET Fold Response (CCR7; tracer at 0.1μM): 1.01; NanoBRET Fold Response (CCR7; tracer at 1μM): 0.99; NanoBRET Fold Response (BDKRB2; tracer at 0.1μM): 1.01; NanoBRET Fold Response (BDKRB2; tracer at 1μM): 1.04; NanoBRET Fold Response (CXCR4; tracer at 0.1μM): 0.89; NanoBRET Fold Response (CXCR4; tracer at 1μM): 1.04; NanoBRET Fold Response (CCR4; tracer at 0.1μM): 0.92; NanoBRET Fold Response (CCR4; tracer at 1μM): 1.01; NanoBRET Fold Response (P2RY1; tracer at 0.1μM): 0.97; NanoBRET Fold Response (P2RY1; tracer at 1μM): 1.01; NanoBRET Fold Response (FZD5; tracer at 0.1μM): 1.01; NanoBRET Fold Response (FZD5; tracer at 1μM): 0.97
6 | Cc1cc2c(s1)Nc1ccccc1N=C2N1CCN(CCCNC(=O)CCOCCOCCOCCOCCNC(=O)CCc2ccc3n2[B-](F)(F)[N+]2=C(c4ccc[nH]4)C=CC2=C3)CC1 [Olanzapine-a-2-NB590] | 1.01 | 1.05 | 0.97 | 1.06 | 1.04 | 1.10 | 1.01 | 0.92 | 0.97 | 0.95 | 1.00 | 1.02 | 
